Patent publication US9469804B2, “Foaming composition with wettability modifying and corrosion inhibitory properties for high temperature and ultra-high salinity” (INSTITUTO MEXICANO DEL PETROLEO, priority 2012, dated 2016)

Columns and labels:
[1] = Phase stability evaluation in brines with ultra-high salinity (turbidity); type: physicochemical; details: 0.2% by weight, room temperature, pass limit 30 NTU
Protocol: A phase stability study was carried out for the supramolecular complexes object of the present invention, described in Examples 19, 20 and 21 and whose basic structural formula is indicated in (36).
All the products were assessed at concentration of 0.2% by weight, dissolved in different waters with high salinity and concentrations of divalent ions, through the measurement of turbidity in NTU (Nephelometric Turbidity Units). This value indicates how turbid or clear a solution/chemical product is and the higher the value, the more turbid the solution is.
The measurement is based on applying the nephelometric technique by using a photometer. The standard method is based on the comparison of the amount of light dispersed by the colloidal particles present in a sample of water with the intensity of the light emerging across the same sample.
It is worth mentioning that in order to pass this test, a value 30 NTU should not be exceeded.

[2] = Foaming test at atmospheric pressure (foam stability); type: physicochemical; details: brine 1, 70°C, 0.2% by weight, nitrogen

TURBIDITY ([1]; BRINE 1 (salinity as NaCl 32803.9, hardness 6420 mg/L)): 1.09 NTU | TURBIDITY ([1]; BRINE 2 (salinity as NaCl 152974.9, hardness 35200 mg/L)): 1.68 NTU | TURBIDITY ([1]; BRINE 3 (salinity as NaCl 253859.1, hardness 87700 mg/L)): 3.9 NTU | time in which the minimum foam stability of 30% is reached [2]: 60 min
Substance: coco-amido-propyl-hydroxysultaine [Coco amido-propyl hydroxysultaine]
